Assay results reported in PubChem BioAssay AID463199 (Broad Institute, 2010).
The source made the active and inactive calls.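 How the source made its calls: active means AC50, the dose giving half-maximal effect, exceeds a fixed cutoff for a compound that rescues yeast growth under heat; inactive means the rest, inconclusive results apart.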

Each compound was assayed on S. cerevisiae Burl-1 ts mutant growth, BacTiter-Glo, 38.5C 24 h (assay: growth induction of Burl-1 ts yeast mutant, dose response, counter-screen for SUMOylation pathway inhibitor project, whole organism, S. cerevisiae, luminescence (AID 463199)).

Row | SMILES | AC50
1 | Cc1ccccc1NC1=NCCCS1 | > 42 µM (inactive)
2 | O=C(c1cnn2c(C(F)(F)F)cc(-c3ccco3)nc12)N1CCCc2ccccc21 | > 42 µM (inactive)
3 | c1ccc(N2CCN(C3CCSC3)CC2)cc1 (stereo unspecified) | > 42 µM (inactive)
4 | CCOc1ccccc1CN1CCN(Cc2ccon2)CC1CCO (stereo unspecified) | > 42 µM (inactive)
5 | CN(Cc1ccccc1)c1ccc(S(=O)(=O)N2CCC(C(=O)O)CC2)cc1[N+](=O)[O-] | > 42 µM (inactive)
6 | CC(C)(CNC(=O)c1cccs1)CNC(=O)c1cccs1 | > 42 µM (inactive)
7 | O=C(c1ccc([N+](=O)[O-])o1)N1CCN(c2nc3c(Cl)cccc3s2)CC1 | > 42 µM (inactive)
8 | O=C(O)c1ccc(COc2c(F)c(F)cc(F)c2F)cc1 | > 42 µM (inactive)
9 | CC(=Nc1ccccc1)C1=C(O)CC(C)(C)CC1=O | > 42 µM (inactive)
10 | Cc1ccc(NC(=O)C(CC(C)C)NC(=O)C2CCC(C)CC2)nc1 (stereo unspecified) | > 42 µM (inactive)
11 | Cc1ccc(CNC(=O)CCn2cc(-c3ccc(C)cc3)nc2CCN)cc1 | > 42 µM (inactive)
12 | COc1ccc(/C=C/C(=O)NC(=S)Nc2ccccn2)cc1 | > 42 µM (inactive)
13 | CCCNCc1cc(OCC)c(OCC(N)=O)cc1Br | > 42 µM (inactive)
14 | O=C(NC(=S)NNC(=O)c1ccccc1O)c1cccc([N+](=O)[O-])c1 | > 42 µM (inactive)
15 | N#CCN(N=Nc1ccccc1)c1ccccc1 | > 42 µM (inactive)
16 | COc1ccc(C(=O)CC(=O)C(=O)Nc2ccc(C)c(Cl)c2)cc1 | > 42 µM (inactive)
17 | COc1ccc(C(=O)CC(=O)C(=O)Nc2ccc(C)c(C)c2)cc1 | > 42 µM (inactive)
18 | CCCC(=O)N(CCN1CCOCC1)c1nc2ccc(OCC)cc2s1 | > 42 µM (inactive)
19 | O=C(/C=C/N1CCOCC1)c1coc2ccccc12 | > 42 µM (inactive)
20 | Cc1[nH]c(C)c(S(=O)(=O)NCC(C)c2ccccc2)c1C(=O)N1CCCCC1 (stereo unspecified) | > 42 µM (inactive)
21 | COc1ccccc1C1NC(=O)CS1 (stereo unspecified) | > 42 µM (inactive)
22 | CC(C)(C)C(=O)C(Cl)C(=O)Nc1ccccc1 (stereo unspecified) | > 42 µM (inactive)
23 | Cc1cc(C(F)(F)F)c(C#N)c(=O)[nH]1 | > 42 µM (inactive)
24 | C#CCn1c(=NC(=O)CN2C(=O)CCC2=O)sc2cccc(OC)c21 | > 42 µM (inactive)
25 | Cc1ccc(/C=C/C(=O)OCC(=O)N(CC(C)C)c2c(N)n(Cc3ccccc3)c(=O)[nH]c2=O)o1 | > 21 µM (inactive)
26 | C/C(CC(=O)Nc1cccc(Cl)c1Cl)=N\NC(=O)c1ccccc1C | > 42 µM (inactive)

Row | SMILES | AC50
27 | N#C/C(=C\c1ccc(O)c(O)c1)C(=O)Nc1ccccc1 | > 42 µM (inactive)
28 | COc1cccc(CN(C)CC2CCCN(CCc3ccc(Cl)cc3)C2)c1OC (stereo unspecified) | > 42 µM (inactive)
29 | COc1ccccc1CNC(=O)[C@H](C)NC(=O)C1CCN(C(=O)[C@@H](N)CC(C)C)CC1 | > 42 µM (inactive)
30 | O=C(NCc1ccco1)C1CC(=O)N(c2ccc(Cl)cc2)C1 (stereo unspecified) | > 42 µM (inactive)
31 | Cc1ccnc(NC(=O)c2ccc(Br)s2)c1 | > 42 µM (inactive)
32 | COc1cc(/C=N/NC2=NS(=O)(=O)c3ccccc32)cc(OC)c1OC | > 42 µM (inactive)
33 | CCNCc1nc2cc(Cl)ccc2c(=O)[nH]1 | > 42 µM (inactive)
34 | COc1ccc(S(=O)(=O)n2nc(-c3ccc(Cl)cc3)cc2N)cc1OC | > 42 µM (inactive)
35 | CCOC(=O)c1ccc(NC(=O)NCc2ccncc2)cc1 | > 42 µM (inactive)
36 | O=C(CN(CC1CCCO1)C(=O)CNS(=O)(=O)c1ccc(F)cc1)NCc1ccccc1 (stereo unspecified) | > 42 µM (inactive)
37 | CCCn1c(N)cc(=O)n(CCC)c1=O | > 42 µM (inactive)
38 | CC(=O)N1CCc2cc(S(=O)(=O)NCCC3=CCCCC3)ccc21 | > 42 µM (inactive)
39 | Cc1sc2nc(SCC(=O)NCCOCCO)n(C)c(=O)c2c1C | > 42 µM (inactive)
40 | COc1ccc(-c2cc(CC3(C(=O)O)CCN(C(=O)OC(C)(C)C)CC3)on2)c(OC)c1 | > 42 µM (inactive)
41 | O=c1[nH]cnc2cc(Cl)ccc12 | 4 µM
42 | Cc1cc(C)c(NC(=O)CCN2CCN(Cc3ccccc3)CC2)c(C)c1 | > 42 µM (inactive)
43 | CCOc1ccc(C(=O)NCC2OCCc3ccccc32)cc1 (stereo unspecified) | > 42 µM (inactive)
44 | CCOCCn1c(-c2ccc(OC)cc2)nc2ccccc21 | > 42 µM (inactive)
45 | C/C=C/C(=O)N1c2ccc(C)cc2C(C)=CC1(C)C | > 42 µM (inactive)
46 | O=C(NC1CCCCC1)C(c1ccncc1)N(Cc1ccc2c(c1)OCO2)C(=O)C(F)(F)F (stereo unspecified) | > 42 µM (inactive)
47 | CCOC(=O)C1(c2ccccc2)CCN(CCC(=O)Nc2ccccc2OC)CC1 | > 42 µM (inactive)
48 | O=C(CN1CCN(Cc2ccc(F)cc2)CC1)NCc1ccccc1 | > 42 µM (inactive)
49 | Cc1ccccc1Nc1c([N+](=O)[O-])ccc2c1=NC1(CCCCC1)N=2 | > 42 µM (inactive)
50 | COc1ccc(C2=NOC(Cn3nc(C(=O)NCc4cccs4)cc3-c3ccccc3)C2)cc1 (stereo unspecified) | > 42 µM (inactive)
51 | CCc1cc2c(=O)c(-c3nc4ccccc4n3C)c(C)oc2c(CN2CCOCC2)c1O | 22.7 µM
52 | CCOC(=O)c1oc2c(c1C)C(=O)CCC2 | > 42 µM (inactive)

Row | SMILES | AC50
53 | CN(C)c1ccc2nc3ccc(=[N+](C)C)cc-3sc2c1 | > 42 µM (inactive)
54 | CC(C)c1nc2n[nH]c(N)c2c2c1CCC2 | > 42 µM (inactive)
55 | Cc1ccc(-c2[nH]ncc2CNCCc2cnn(-c3ccccc3)c2)cc1C | > 42 µM (inactive)
56 | COc1ccc(NC(=O)c2cc(S(=O)(=O)Nc3ccc(OC)cc3)cs2)cc1 | > 42 µM (inactive)
57 | O=c1c2ccccc2nc(SCc2nnc(-c3ccccc3)o2)n1-c1ccc(F)cc1F | > 42 µM (inactive)
58 | Cn1cnnc1-c1cccc(NS(=O)(=O)c2ccc(N3CCCC3=O)cc2)c1 | > 42 µM (inactive)
59 | Cc1ccc(S(=O)(=O)NCCS(=O)(=O)N2CCN(c3ccc(F)cc3)CC2)cc1 | > 42 µM (inactive)
60 | O=C(COc1ccc(-n2cnnn2)cc1)NCCc1ccc(F)cc1 | > 42 µM (inactive)
61 | CCOc1ccc(C(=O)c2cccs2)cc1 | > 42 µM (inactive)
62 | COc1ccc(C(=O)CSc2nnc(CNC(=O)c3ccccc3)n2C)cc1 | > 42 µM (inactive)
63 | CCS(=O)(=O)c1nc(S(=O)(=O)c2ccc(Cl)cc2)c(N2CCc3ccccc3C2)s1 | > 42 µM (inactive)
64 | Cc1nc2c(-c3ccc(F)cc3)cnn2c2c1CCC2 | > 42 µM (inactive)
65 | CCN1CCCC1CN(Cc1cc2ccc(C)cc2[nH]c1=O)C(=S)Nc1ccccc1C(=O)OC (stereo unspecified) | > 42 µM (inactive)
66 | Cc1ccccc1P(=O)(CO)c1ccccc1C | > 42 µM (inactive)
67 | Cc1cc(O)c(/C=N/Nc2cccc(Cl)c2)c(=O)o1 | > 42 µM (inactive)
68 | CCCC(=O)NC(C)c1nc2ccccc2[nH]1 (stereo unspecified) | > 42 µM (inactive)
69 | Nc1ccc(NC(=O)c2ccco2)c(Cl)c1 | > 42 µM (inactive)
70 | CCOc1ccc(C(=O)NNC2CC(=O)N(CCc3ccccc3)C2=O)cc1OC (stereo unspecified) | > 42 µM (inactive)
71 | O=C(c1cc(Cl)c(=O)n(Cc2ccc(Cl)cc2)c1)N1CCOCC1 | > 42 µM (inactive)
72 | CCN(CC)C(=O)Cn1cc(S(=O)(=O)CC(=O)NCCc2ccc(OC)c(OC)c2)c2ccccc21 | > 42 µM (inactive)
73 | CCCc1nn2c(=O)cc(CSCC(=O)Nc3ccc(OC)cc3)nc2s1 | > 42 µM (inactive)
74 | CC(=O)N/C(=C\c1ccccc1)C(=O)OCC(=O)c1ccccc1 | > 42 µM (inactive)
75 | CCOC(=O)c1ccc(NC(=O)CC2Sc3ncnn3C2=O)cc1 (stereo unspecified) | > 42 µM (inactive)
76 | CN(Cc1ccc(C(C)(C)C)cc1)C(=O)c1ccc2c(=O)n3c(nc2c1)CCC3 | > 42 µM (inactive)
77 | COCC(C)n1c(SCC(=O)NNC(=O)c2ccccc2)nc2ccccc2c1=O (stereo unspecified) | > 42 µM (inactive)
78 | C=CCSc1nnc2c(n1)[nH]c1c(C)cccc12 | > 42 µM (inactive)

Row | SMILES | AC50
79 | O=C(Nc1nnc(-c2ccco2)o1)c1ccc(S(=O)(=O)N2CCCC2)cc1 | > 42 µM (inactive)
80 | O=C(CSc1ccc(Br)cc1)Nc1ccccc1N1CCOCC1 | > 42 µM (inactive)
81 | CC1(C)CC(=O)C2=C(C1)OC(N)=C(C#N)C21C(=O)N(CN2CCOCC2)c2ccccc21 (stereo unspecified) | > 42 µM (inactive)
82 | O=C(NCC1CCCO1)c1nn2c(C(F)(F)F)cc(-c3cc(Br)cs3)nc2c1Br (stereo unspecified) | > 42 µM (inactive)
83 | Clc1cnc(Oc2ccc(Oc3ncc(Cl)cc3Cl)cc2)c(Cl)c1 | > 42 µM (inactive)
84 | COc1cc([C@@H]2CC=C(C(=O)O)[C@H](c3ccccc3F)N2S(=O)(=O)c2ccc(C)cc2)cc(OC)c1OC | > 42 µM (inactive)
85 | Oc1ccccc1-c1cc(C(F)(F)C(F)F)[nH]n1 | > 42 µM (inactive)
86 | CCOc1ccc(/C=N/NC(=O)c2ccc(CSc3nc4ccccc4[nH]3)cc2)cc1 | > 42 µM (inactive)
87 | CSCCC(NC(=O)c1ccco1)C(=O)N1CCN(Cc2ccccc2)CC1 (stereo unspecified) | > 42 µM (inactive)
88 | O=C1CCCN1CCC(=O)N1CCCC(N2CCN(c3ccccc3F)CC2)C1 (stereo unspecified) | > 42 µM (inactive)
89 | CN(CCOc1ccc(Cl)cc1)CC(=O)Nc1ccc(OC(F)F)cc1 | > 42 µM (inactive)
90 | CCC(=O)Nc1nc(CC(=O)Nc2ccccc2OC)cs1 | > 42 µM (inactive)
91 | C/C(=N/OCO/N=C(\C)c1ccccc1)c1ccccc1 | > 42 µM (inactive)
92 | Cc1ccc(C(=O)O)cc1[N+](=O)[O-] | > 42 µM (inactive)
93 | COc1ccccc1C(=O)NC(=O)COC(=O)Cc1ccccc1[N+](=O)[O-] | > 42 µM (inactive)
94 | O=C(COc1ncnc2c(Cl)cc(Cl)cc12)NCCC1=CCCCC1 | > 42 µM (inactive)
95 | CCN(CC)S(=O)(=O)c1ccc(N2CCCC2)c(C(=O)OCC(=O)Nc2cc(C)on2)c1 | > 42 µM (inactive)
96 | COc1ccc(C(=O)Nn2c(SCC(=O)NCc3ccccc3)nc3ccccc3c2=O)cc1 | > 42 µM (inactive)
97 | O=C(Nc1ccc2c(c1)oc1ccccc12)C1CC1 | > 42 µM (inactive)
98 | COc1ccc(Nc2oc(-c3cccs3)nc2C#N)cc1 | > 42 µM (inactive)
99 | CCCOC(=O)c1ccc(O)c(OC)c1 | > 42 µM (inactive)
100 | O=C(NCc1ccccc1Cl)c1ccc2c(c1)OCO2 | > 42 µM (inactive)
101 | CCN(CC)CCCn1c(=S)[nH]c2ccc(Cl)cc2c1=O | 38.6 µM
